From article PMC9864251 (Viruses, 2022)

Legend:
[1] = biological target: T1, HuNoV (GII.4) RdRp (Norovirus GII.4 (Human norovirus, Norovirus norwalkense), UniProt P54634); test: Gel-based (gel-shift) RdRp primed elongation assay with PE44-NoV template; assay type: biochemical; conditions: compounds at fixed concentration of 100 μM
[2] = tested on: NoV; parameters: method as in earlier work; conditions: cited from earlier work
[3] = parameters: method as in earlier work; conditions: cited from earlier work
[4] = biological target: T1, HuNoV (GII.4) RdRp; conditions: activity data as previously reported ref 18,19, read-out: In Vitro RdRp Activity Assay IC50; cited from earlier work
[5] = tested on: HuNoVpol; parameters: method as in earlier work; conditions: cited from earlier work
[6] = tested on: MNV; parameters: method as in earlier work; conditions: cited from earlier work
[7] = biological target: T1, HuNoV (GII.4) RdRp; test: Quantitative fluorescent RdRp activity assay (PicoGreen, poly(C) template); assay type: biochemical; conditions: compounds at 20 μM in triplicate, normalized to DMSO control
[8] = tested on: RAW 264.7 cells; test: Cytotoxicity by the MTS method in uninfected RAW 264.7 cells; assay type: cell-based, mouse; conditions: 3 days, 0.6–100 μM range, mean ± SD, at least three independent experiments
[9] = tested on: MNVpol; parameters: method as in earlier work; conditions: cited from earlier work
[10] = tested on: MNV (virus strain MNV-1.CW1); test: MNV antiviral MTS-based cytopathic effect; assay type: cell-based, murine norovirus; conditions: Norwalk virus, RAW264.7, 72 h, read-out: MNV EC50

T1 sequence (P54634 1190-1699): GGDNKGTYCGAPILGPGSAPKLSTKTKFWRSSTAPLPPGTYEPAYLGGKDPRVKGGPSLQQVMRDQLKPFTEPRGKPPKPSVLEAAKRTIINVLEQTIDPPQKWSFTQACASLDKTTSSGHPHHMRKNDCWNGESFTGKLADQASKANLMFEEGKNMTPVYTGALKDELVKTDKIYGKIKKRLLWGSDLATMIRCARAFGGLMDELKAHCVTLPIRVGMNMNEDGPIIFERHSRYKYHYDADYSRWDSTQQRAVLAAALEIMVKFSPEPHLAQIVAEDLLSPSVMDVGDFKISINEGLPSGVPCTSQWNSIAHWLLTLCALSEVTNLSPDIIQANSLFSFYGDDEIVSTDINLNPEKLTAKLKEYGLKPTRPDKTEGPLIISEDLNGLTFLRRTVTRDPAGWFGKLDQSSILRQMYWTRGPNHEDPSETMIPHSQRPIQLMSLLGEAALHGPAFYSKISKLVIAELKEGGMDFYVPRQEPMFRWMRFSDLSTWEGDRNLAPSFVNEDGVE

O=C(CN1C(=O)S/C(=C\c2ccc(-c3ccc(OP(=O)(O)O)cc3)o2)C1=O)N1CCOCC1 [Compound 4c]
Inhibition of RdRp primed elongation activity (gel-shift) [1]: partial inhibition

NC(=O)c1nc(F)c[nH]c1=O [Compound T-705, Favipiravir]
EC50 [2]: 21 µM | CC50 [3]: > 100 µM

Cc1nc(/N=N/c2cc(S(=O)(=O)O)c3cc([N+](=O)[O-])cc(S(=O)(=O)O)c3c2)c(COP(=O)(O)O)c(C=O)c1O [PPNDS, reference compound]
IC50 [4]: 1.5 ± 0.25 µM | Inhibition of RdRp primed elongation activity (gel-shift) [1]: complete inhibition | IC50 [5]: 0.45 µM

Cc1ccc(NC(=O)CSc2n[nH]c(-c3ccccc3O)n2)cc1 [Compound 1b]
Inhibition of RdRp primed elongation activity (gel-shift) [1]: partial inhibition

Cc1nc(-c2ccccc2)sc1C(=O)Nc1sc2c(c1C#N)CCC2 [NIC02]
EC50 [6]: 4.8 µM | IC50 [5]: 5 µM

O=C(Nc1cccc(N2C(=O)c3ccccc3C2=O)c1)c1ccccc1 [Compound 2e]
Inhibition of HuNoV RdRp activity at 20 μM [7]: loss of inhibitory activity

Cc1cc(O)ccc1-c1ccc(/C=C2\SC(=O)N(CC(=O)N3CCOCC3)C2=O)o1 [Compound 4a]
Inhibition of HuNoV RdRp activity at 20 μM [7]: modest inhibition

Cc1cc(C(=O)O)ccc1-c1ccc(/C=C2\SC(=O)N(CC(=O)N3CCOCC3)C2=O)o1 [Compound 4]
IC50 [4]: 15 µM | MNV CC50 [8]: did not display any cytotoxicity

Cc1ccc(C(=O)Nc2ccc(S(=O)(=O)O)c3cc(S(=O)(=O)O)cc(S(=O)(=O)O)c23)cc1NC(=O)c1cccc(NC(=O)Nc2cccc(C(=O)Nc3cc(C(=O)Nc4ccc(S(=O)(=O)O)c5cc(S(=O)(=O)O)cc(S(=O)(=O)O)c45)ccc3C)c2)c1 [Suramin]
IC50 [9]: 0.07 µM | IC50 [5]: 0.025 µM

Cc1ccc(NC(=O)CSc2n[nH]c(-c3ccccc3O)n2)c(C)c1 [Compound 1]
Inhibition of RdRp primed elongation activity (gel-shift) [1]: partial inhibition

O=C(N/N=C/c1ccc(O)cc1O)c1ccccc1OCc1ccccc1 [Compound 3a]
Inhibition of HuNoV RdRp activity at 20 μM [7]: modest inhibition | Inhibition of RdRp primed elongation activity (gel-shift) [1]: did not show significant inhibition

O=C1NN(c2ccccc2)C(=O)/C1=C/c1ccc(-c2ccc(S(=O)(=O)Nc3ccccc3)cc2)o1 [Compound 5]
IC50 [4]: 5.6 µM | Inhibition of RdRp primed elongation activity (gel-shift) [1]: completely abolish | EC50 [10]: > 100 µM

O=C(CN1C(=O)S/C(=C\c2ccc(-c3ccc(O)cc3)o2)C1=O)N1CCOCC1 [Compound 4b]
Inhibition of RdRp primed elongation activity (gel-shift) [1]: significant but partial inhibition | MNV CC50 [8]: cytotoxic effect in the micromolar range

C[C@@]1(O)[C@H](O)[C@@H](CO)O[C@H]1n1ccc(N)nc1=O [Compound 2-CMC, 2′-C-methylcytidine]
EC50 [2]: 8.2 µM | CC50 [3]: > 100 µM

O=C(N/N=C/c1ccc(OCc2ccccc2)cc1O)c1ccccc1O [Compound 3b]
Inhibition of HuNoV RdRp activity at 20 μM [7]: modest inhibition | Inhibition of RdRp primed elongation activity (gel-shift) [1]: did not show significant inhibition

Cc1ccc(NC(=O)CS(=O)(=O)c2n[nH]c(-c3ccccc3O)n2)c(C)c1 [Compound 1f]
Inhibition of RdRp primed elongation activity (gel-shift) [1]: partial inhibition | MNV CC50 [8]: not associated with any cytotoxicity

O=C1NN(c2ccc(O)cc2)C(=O)/C1=C/c1ccc(-c2ccc(S(=O)(=O)Nc3ccccc3)cc2)o1 [Compound 5a]
Inhibition of RdRp primed elongation activity (gel-shift) [1]: nearly complete inhibition | MNV CC50 [8]: CC50 value in the low micromolar range

COc1ccc(N2C(=O)c3ccc(C(=O)O)cc3C2=O)cc1NC(=O)c1ccccc1 [Compound 2]
Inhibition of HuNoV RdRp activity at 20 μM [7]: limited RdRp inhibition | Inhibition of RdRp primed elongation activity (gel-shift) [1]: partial inhibition

Cc1ccc(NC(=O)C[S+]([O-])c2n[nH]c(-c3ccccc3O)n2)c(C)c1 (stereo not drawn) [Compound 1e]
Inhibition of HuNoV RdRp activity at 20 μM [7]: loss of inhibitory activity

NC(=O)c1ncn([C@@H]2O[C@H](CO)[C@@H](O)[C@H]2O)n1 [Ribavirin]
EC50 [2]: 43 µM | CC50 [3]: > 100 µM
